Measurements published in patent publication US10988456B2, “O-aminoheteroaryl alkynyl-containing compound, preparation method therefor, and use thereof” (SHANGHAI INSTITUTE OF MATERIA MEDICA, CHINESE ACADEMY OF …, priority 2017, dated 2021).
Blank lines part the entries; values can stand above or below the compound they belong to.

Assays:
KDR = KDR (Homo sapiens, UniProt P35968); assay: Inhibition of receptor tyrosine kinase activity at molecular level (ELISA, Poly(Glu,Tyr)4:1 substrate phosphorylation); format: biochemical; details: 10 nM compound; average of two independent experiments
Chain of KDR (P35968 20-1356): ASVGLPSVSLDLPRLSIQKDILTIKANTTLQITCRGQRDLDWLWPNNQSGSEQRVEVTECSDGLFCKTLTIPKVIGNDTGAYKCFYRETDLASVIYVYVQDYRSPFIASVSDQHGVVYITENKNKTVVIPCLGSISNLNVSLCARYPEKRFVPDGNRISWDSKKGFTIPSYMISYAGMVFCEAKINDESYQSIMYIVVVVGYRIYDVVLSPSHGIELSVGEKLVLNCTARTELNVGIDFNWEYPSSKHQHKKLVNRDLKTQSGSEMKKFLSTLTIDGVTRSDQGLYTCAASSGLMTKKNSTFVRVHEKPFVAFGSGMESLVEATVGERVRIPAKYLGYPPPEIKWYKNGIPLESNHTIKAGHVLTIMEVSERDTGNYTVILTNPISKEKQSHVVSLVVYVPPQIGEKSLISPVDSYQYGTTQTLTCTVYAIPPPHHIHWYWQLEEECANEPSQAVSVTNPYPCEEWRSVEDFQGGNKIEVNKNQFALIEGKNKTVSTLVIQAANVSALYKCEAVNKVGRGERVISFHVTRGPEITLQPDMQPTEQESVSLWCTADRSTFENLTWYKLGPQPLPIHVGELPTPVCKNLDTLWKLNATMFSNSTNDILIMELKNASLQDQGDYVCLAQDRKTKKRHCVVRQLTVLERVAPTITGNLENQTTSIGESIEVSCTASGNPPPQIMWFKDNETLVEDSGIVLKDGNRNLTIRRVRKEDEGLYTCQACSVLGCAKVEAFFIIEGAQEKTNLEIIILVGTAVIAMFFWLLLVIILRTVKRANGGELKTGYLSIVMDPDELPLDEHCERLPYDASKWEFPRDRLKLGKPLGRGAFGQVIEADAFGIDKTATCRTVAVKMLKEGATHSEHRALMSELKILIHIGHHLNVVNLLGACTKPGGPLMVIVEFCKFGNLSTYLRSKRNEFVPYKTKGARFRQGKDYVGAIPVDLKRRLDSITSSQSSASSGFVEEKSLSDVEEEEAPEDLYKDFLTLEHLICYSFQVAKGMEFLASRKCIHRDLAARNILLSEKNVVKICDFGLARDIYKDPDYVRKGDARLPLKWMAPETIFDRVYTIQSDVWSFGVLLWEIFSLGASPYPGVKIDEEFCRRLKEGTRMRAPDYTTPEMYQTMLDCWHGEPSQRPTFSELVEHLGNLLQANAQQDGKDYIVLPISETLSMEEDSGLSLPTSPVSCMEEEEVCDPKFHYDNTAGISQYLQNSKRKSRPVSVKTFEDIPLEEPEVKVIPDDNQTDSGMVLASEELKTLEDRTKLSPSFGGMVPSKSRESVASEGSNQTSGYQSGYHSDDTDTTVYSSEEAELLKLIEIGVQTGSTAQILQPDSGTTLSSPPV

FGFR1 = FGFR1 (Homo sapiens, UniProt P11362); assay: as above; format: biochemical; details: 10 nM compound; average of two independent experiments
Chain of FGFR1 (P11362 22-822): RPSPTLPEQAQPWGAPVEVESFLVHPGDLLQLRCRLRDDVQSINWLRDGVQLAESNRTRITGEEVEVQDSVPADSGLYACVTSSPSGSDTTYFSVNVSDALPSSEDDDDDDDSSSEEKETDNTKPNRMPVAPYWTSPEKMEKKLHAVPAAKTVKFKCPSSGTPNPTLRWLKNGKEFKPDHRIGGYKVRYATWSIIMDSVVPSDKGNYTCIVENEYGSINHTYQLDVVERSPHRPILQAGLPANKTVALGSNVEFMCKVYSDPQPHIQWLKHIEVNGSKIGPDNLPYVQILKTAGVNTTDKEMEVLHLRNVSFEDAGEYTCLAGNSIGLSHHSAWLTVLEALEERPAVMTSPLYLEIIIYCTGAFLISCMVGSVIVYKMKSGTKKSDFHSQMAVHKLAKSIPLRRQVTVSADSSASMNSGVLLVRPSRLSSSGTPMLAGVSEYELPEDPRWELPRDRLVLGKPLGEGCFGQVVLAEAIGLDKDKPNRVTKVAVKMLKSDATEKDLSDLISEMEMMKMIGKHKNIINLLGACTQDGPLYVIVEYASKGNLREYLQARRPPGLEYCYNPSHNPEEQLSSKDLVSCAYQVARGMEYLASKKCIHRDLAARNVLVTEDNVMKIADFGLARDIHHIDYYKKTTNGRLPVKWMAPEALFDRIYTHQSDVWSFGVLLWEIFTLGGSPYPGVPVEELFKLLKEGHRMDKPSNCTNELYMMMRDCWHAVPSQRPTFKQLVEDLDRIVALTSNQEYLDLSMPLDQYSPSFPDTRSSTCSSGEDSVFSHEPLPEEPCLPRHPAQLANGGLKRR

RET = RET (Homo sapiens, UniProt P07949); assay: as above; format: biochemical; details: for 10 nM inhibition ratio RET: 10 nM compound, average of two independent experiments
Chain of RET (P07949 29-1114): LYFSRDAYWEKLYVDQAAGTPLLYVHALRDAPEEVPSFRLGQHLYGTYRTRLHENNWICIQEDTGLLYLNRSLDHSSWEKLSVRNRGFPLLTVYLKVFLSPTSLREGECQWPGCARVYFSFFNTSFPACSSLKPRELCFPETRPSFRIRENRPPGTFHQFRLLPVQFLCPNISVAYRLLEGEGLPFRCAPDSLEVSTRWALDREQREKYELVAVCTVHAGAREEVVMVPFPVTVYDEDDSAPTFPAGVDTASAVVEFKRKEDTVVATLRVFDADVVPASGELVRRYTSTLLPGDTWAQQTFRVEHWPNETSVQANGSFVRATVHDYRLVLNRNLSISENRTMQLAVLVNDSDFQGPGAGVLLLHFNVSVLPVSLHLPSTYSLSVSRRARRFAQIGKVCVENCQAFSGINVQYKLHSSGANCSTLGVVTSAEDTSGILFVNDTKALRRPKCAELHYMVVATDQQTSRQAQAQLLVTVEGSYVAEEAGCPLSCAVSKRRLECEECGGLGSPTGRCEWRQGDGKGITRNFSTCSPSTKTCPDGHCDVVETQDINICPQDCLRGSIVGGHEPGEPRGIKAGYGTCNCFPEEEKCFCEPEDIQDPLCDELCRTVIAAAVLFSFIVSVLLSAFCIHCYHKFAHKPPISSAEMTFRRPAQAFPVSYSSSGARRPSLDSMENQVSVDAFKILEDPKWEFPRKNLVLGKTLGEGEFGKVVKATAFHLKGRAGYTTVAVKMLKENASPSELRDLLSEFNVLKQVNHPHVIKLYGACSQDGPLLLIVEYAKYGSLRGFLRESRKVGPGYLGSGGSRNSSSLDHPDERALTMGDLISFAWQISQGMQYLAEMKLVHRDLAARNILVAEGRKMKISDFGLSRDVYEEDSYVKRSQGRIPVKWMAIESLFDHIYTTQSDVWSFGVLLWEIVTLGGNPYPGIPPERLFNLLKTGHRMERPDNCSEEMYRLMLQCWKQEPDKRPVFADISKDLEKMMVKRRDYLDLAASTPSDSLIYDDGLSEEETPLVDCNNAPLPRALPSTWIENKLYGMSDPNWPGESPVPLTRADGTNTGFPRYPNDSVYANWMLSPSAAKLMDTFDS
How it was run: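 Poly(Glu,Tyr)4:1-coated plates (20 μg/mL) were incubated with recombinant kinase, compound and 5 μM ATP (final) in HEPES pH 7.4 buffer with MgCl2/MnCl2/Na3VO4/DTT for 1 h at 37 °C. Phosphotyrosine was detected with PY99 and HRP anti-mouse IgG plus OPD at 490 nm. IC50 came from four-parameter regression.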

Ret (V804M) = target: T1, Ret (V804M) (Homo sapiens, UniProt P07949, V804M); assay: Inhibition of RET-related mutant enzyme activity (ELISA); format: biochemical; details: measured twice, Mean ± SD
T1 construct: purchased
T1 sequence (P07949 29-1114 V804M): as the sequence (P07949 29-1114) above, with V776M counted along it
Description: Enzyme reaction substrate Poly(Glu, Tyr)4:1 was diluted with potassium-free PBS (10 mM sodium phosphate buffer, 150 mM NaCl, pH 7.2-7.4) to 20 μg/mL. The enzyme label plate was coated with 125 μL/well. The reaction was conducted under 37° C. for 12-16 hours. After the liquid was removed from the wells, the plate was washed three times with 200 μL/well of T-PBS (PBS containing 0.1% Tween-20), each for 5 minutes. The enzyme plate was dried in 37° C. dryer for 1-2 hours.
50 μL ATP solution diluted with buffer (50 mM HEPES pH 7.4, 50 mM MgCl2, 0.5 mM MnCl2, 0.2 mM Na3VO4, 1 mM DTT) to a final concentration of 5 μM was added into each well. The compound was diluted with DMSO to a suitable concentration (1 μL/well) or the well contained the corresponding concentration of DMSO (negative control well) Then various kinase recombinant proteins diluted with 49 μL of reaction buffer was added to initiate the reaction. Each experiment required duplicate enzyme-free control well. The reaction was carried out for 1 hour on a 37° C. Shaker (100 rpm). […] The reaction was quenched with 2M H2SO4 (50 μL/well), and read at 490 nm using a tunable microplate reader SPECTRA MAX 190.
The inhibition ratio of the sample was determined by the following formula: […]
The IC50 values were obtained via four-parameter regression analysis using the software supplied with the microplate reader. […]

[1] = test system: RET signaling pathway in TT and BaF3/CCDC6-RET cells; assay: Western blotting of RET signaling pathway activation in cells; format: cell-based; details: compounds 2 hours; P-RET, P-AKT, P-ErK
Description: Detecting the Effect of Compounds on the Activation of RET Signaling Pathway in TT and BaF3/CCDC6-RET Cells by Western Blotting
The cells were seeded into a 12-well plate (250,000/well). After incubation for 18-24 hours, the compounds were added to react for 2 hours, and then the cells were collected and firstly washed once with cold PBS (containing 1 mmol sodium vanadate); then 1×SDS gel loading buffer (50 mmol Tris-HCl (pH 6.8), 100 mmol DTT, 2% SDS, 10% glycerol, 1 mmol sodium vanadate, 0.1% bromophenol blue) was added to lyse cells. The cell lysate was heated in a boiling water bath for 10 minutes, and then centrifuged at 12,000 rpm for 10 minutes at 4° C.
The supernatant was taken for SDS-PAGE electrophoresis (Mini-PROTEAN 3 Cell, Bio-Rad, Hercules, Calif., USA). After electrophoresis, the proteins were transferred to a nitrocellulose membrane using a semi-dry electrotransfer system (Amersham Life Sciences, Arlington Heights, Ill., USA). The nitrocellulose membrane was placed in a blocking solution (5% skim milk powder diluted in TBS containing 1 mmol sodium vanadate) for 2 hours at room temperature, and then the membrane was placed and reacted with a primary antibody at 4° C. overnight. […] The membrane was placed in a secondary antibody solution and reacted for 1-2 hours at room temperature. After the membrane was washed three times as above, the membrane was stained using ECL (Picece, Rockford, Ill.) reagent was used for staining and then developed.

[2] = test system: human gastric cancer SNU-16 xenografts; assay: Growth of subcutaneous xenografts of human gastric cancer SNU-16 in nude mice (comparative compounds study); details: for relative tumor proliferation rate T/C: day 21; for Weight (g, mean ± SD): SNU-16 tumor-bearing mice
[3] = Pharmacokinetic experiment in rat (IV and PO, plasma LC-MS/MS)
Description: (§1) Ponatinib (AP24534) was administered intravenously (IV) and orally (PO) to SD rats. Blood samples were taken at different time points. LC-MS/MS was used to determine the concentration of compound in the plasma of rats after administration of the test compound, and the relevant pharmacokinetic parameters were calculated to examine oral bioavailability and pharmacokinetic properties of the compound in rats.
as §1, with “Compound HuFGFR267” for “Ponatinib (AP24534)”, “intravenously” for “intravenously (IV)”, “orally” for “orally (PO)”

[4] = test system: human gastric cancer SNU-16 xenografts; details: mouse, in vivo

10 nM inhibition ratio KDR (KDR): 35.2
10 nM inhibition ratio FGFR1 (FGFR1): 74.7
10 nM inhibition ratio RET (RET): 57.7
IC50 (RET; measured twice, Mean ± SD): 6 ± 0.4 nM
IC50 (Ret (V804M)): 17.9 ± 5.4 nM
SMILES: CN1CCN(Cc2ccc(NC(=O)c3cccc(C#Cc4cccnc4N)c3)cc2C(F)(F)F)CC1 [Example 6]
inhibition of RET phosphorylation and downstream signaling pathway (Western blot, FIG. 1) [1]: inhibited RET phosphorylation and the downstream signaling pathway

SMILES: Cc1ccc(C(=O)Nc2ccc(CN3CCN(C)CC3)c(C(F)(F)F)c2)cc1C#Cc1cnc2cccnn12 [Ponatinib]
relative tumor proliferation rate T/C ([2]; SNU-16, 30 mg/kg orally once a day for 21 days): 36.20%
Relative tumor volume RTV (mean ± SD) ([2]; SNU-16, 30 mg/kg orally once a day, d0): 1.00 ± 0.00
Relative tumor volume RTV (mean ± SD) ([2]; SNU-16, 30 mg/kg orally once a day, d3): 1.46 ± 0.30
Relative tumor volume RTV (mean ± SD) ([2]; SNU-16, 30 mg/kg orally once a day, d7): 1.56 ± 0.52
Relative tumor volume RTV (mean ± SD) ([2]; SNU-16, 30 mg/kg orally once a day, d10): 1.56 ± 0.22
Relative tumor volume RTV (mean ± SD) ([2]; SNU-16, 30 mg/kg orally once a day, d14): 2.00 ± 0.38
Relative tumor volume RTV (mean ± SD) ([2]; SNU-16, 30 mg/kg orally once a day, d17): 1.94 ± 0.47
Relative tumor volume RTV (mean ± SD) ([2]; SNU-16, 30 mg/kg orally once a day, d21): 2.10 ± 0.34
Weight (g, mean ± SD) ([2]; 30 mg/kg orally once a day, d0): 23.6 ± 2.5 g
Weight (g, mean ± SD) ([2]; 30 mg/kg orally once a day, d3): 24.2 ± 2.9 g
Weight (g, mean ± SD) ([2]; 30 mg/kg orally once a day, d7): 23.5 ± 2.8 g
Weight (g, mean ± SD) ([2]; 30 mg/kg orally once a day, d10): 23.7 ± 2.9 g
Weight (g, mean ± SD) ([2]; 30 mg/kg orally once a day, d14): 24.5 ± 2.8 g
Weight (g, mean ± SD) ([2]; 30 mg/kg orally once a day, d17): 24.1 ± 2.6 g
Weight (g, mean ± SD) ([2]; 30 mg/kg orally once a day, d21): 24.6 ± 3.1 g
F ([3]; SD rats, PO (10 mg/kg) vs IV (2 mg/kg)): 24.4%
AUC0-t ([3]; SD, rat, plasma, iv, 2 mg/kg): 1410 ng·h/mL
Vd ([3]; SD, rat, plasma, iv, 2 mg/kg): 7.78 L/kg
clearance ([3]; SD, rat, plasma, iv, 2 mg/kg): 22.2 mL/min/kg
half-life ([3]; SD, rat, plasma, iv, 2 mg/kg): 4.24 h
AUC0-t ([3]; SD, rat, plasma, po, 10 mg/kg): 1600 ng·h/mL
Cmax ([3]; SD, rat, plasma, po, 10 mg/kg): 241 ng/mL
Tmax ([3]; SD, rat, plasma, po, 10 mg/kg): 2.33 h
half-life ([3]; SD, rat, plasma, po, 10 mg/kg): 8.29 h
10 nM inhibition ratio KDR (KDR): 85.3
10 nM inhibition ratio FGFR1 (FGFR1): 79.5
10 nM inhibition ratio RET (RET): 87.5
inhibition of RET phosphorylation and downstream signaling pathway (Western blot, FIG. 1) [1]: inhibited RET phosphorylation and the downstream signaling pathway

SMILES: CN1CCN(Cc2ccc(NC(=O)c3ccc(Cl)c(C#Cc4cccnc4)c3)cc2C(F)(F)F)CC1 [HuFGFR1-117]
Relative tumor volume RTV (mean ± SD) ([2]; SNU-16, 20 mg/kg orally once a day, d0): 1.00 ± 0.00
Relative tumor volume RTV (mean ± SD) ([2]; SNU-16, 20 mg/kg orally once a day, d3): 1.51 ± 0.37
Relative tumor volume RTV (mean ± SD) ([2]; SNU-16, 20 mg/kg orally once a day, d7): 1.75 ± 0.47
Relative tumor volume RTV (mean ± SD) ([2]; SNU-16, 20 mg/kg orally once a day, d10): 1.49 ± 0.14
Relative tumor volume RTV (mean ± SD) ([2]; SNU-16, 20 mg/kg orally once a day, d14): 2.06 ± 0.38
Relative tumor volume RTV (mean ± SD) ([2]; SNU-16, 20 mg/kg orally once a day, d17): 2.55 ± 0.55
Relative tumor volume RTV (mean ± SD) ([2]; SNU-16, 20 mg/kg orally once a day, d21): 2.78 ± 0.58
relative tumor proliferation rate T/C ([2]; SNU-16, 20 mg/kg orally once a day): 47.88%
animal deaths ([2]; SNU-16, 100 mg/kg group): one mouse died on the 9th and 10th day respectively
Relative tumor volume RTV (mean ± SD) ([2]; SNU-16, 100 mg/kg orally once a day (administration interrupted), d0): 1.00 ± 0.00
Relative tumor volume RTV (mean ± SD) ([2]; SNU-16, 100 mg/kg orally once a day (administration interrupted), d3): 1.53 ± 0.39
Relative tumor volume RTV (mean ± SD) ([2]; SNU-16, 100 mg/kg orally once a day (administration interrupted), d7): 0.80 ± 0.18
Relative tumor volume RTV (mean ± SD) ([2]; SNU-16, 100 mg/kg orally once a day (administration interrupted), d10): 0.49 ± 0.08
Relative tumor volume RTV (mean ± SD) ([2]; SNU-16, 100 mg/kg orally once a day (administration interrupted), d14): 0.51 ± 0.19
Relative tumor volume RTV (mean ± SD) ([2]; SNU-16, 100 mg/kg orally once a day (administration interrupted), d17): 0.75 ± 0.22
Relative tumor volume RTV (mean ± SD) ([2]; SNU-16, 100 mg/kg orally once a day (administration interrupted), d21): 0.83 ± 0.31
relative tumor proliferation rate T/C ([2]; SNU-16, 100 mg/kg orally, administration interrupted): 14.38%
weight of the tumor-bearing mice (in words) ([2]; SNU-16, HuFGFR1-113 at 20 mg/kg, HuFGFR1-117 dose not stated): significantly decreased
Weight (g, mean ± SD) ([2]; 20 mg/kg orally once a day, d0): 22.5 ± 1.9 g
Weight (g, mean ± SD) ([2]; 20 mg/kg orally once a day, d3): 23.6 ± 2.1 g
Weight (g, mean ± SD) ([2]; 20 mg/kg orally once a day, d7): 22.7 ± 2.0 g
Weight (g, mean ± SD) ([2]; 20 mg/kg orally once a day, d10): 22.7 ± 2.3 g
Weight (g, mean ± SD) ([2]; 20 mg/kg orally once a day, d14): 23.6 ± 2.4 g
Weight (g, mean ± SD) ([2]; 20 mg/kg orally once a day, d17): 24.2 ± 2.5 g
Weight (g, mean ± SD) ([2]; 20 mg/kg orally once a day, d21): 24.7 ± 2.3 g
Weight (g, mean ± SD) ([2]; 100 mg/kg orally once a day (administration interrupted), d0): 23.6 ± 0.7 g
Weight (g, mean ± SD) ([2]; 100 mg/kg orally once a day (administration interrupted), d3): 24.4 ± 1.8 g
Weight (g, mean ± SD) ([2]; 100 mg/kg orally once a day (administration interrupted), d7): 21.1 ± 1.9 g
Weight (g, mean ± SD) ([2]; 100 mg/kg orally once a day (administration interrupted), d10): 17.6 ± 1.8 g
Weight (g, mean ± SD) ([2]; 100 mg/kg orally once a day (administration interrupted), d14): 19.7 ± 2.0 g
Weight (g, mean ± SD) ([2]; 100 mg/kg orally once a day (administration interrupted), d17): 22.6 ± 1.5 g
Weight (g, mean ± SD) ([2]; 100 mg/kg orally once a day (administration interrupted), d21): 23.0 ± 2.4 g
toxicity / condition of the mice (in words) [4]: dry skin, molting, and poor condition
